Experimental data reported in ChEMBL document CHEMBL1201862, “PubChem BioAssay data set” (2004).
Calls of active or inactive are those of the source.

How the values were obtained:
INS1 [1] = experiment: protection from cytokine-induced mitochondrial depolarization, dose response, cell-based, INS-1E, JC-1 fluorescence ratio, dry powder (AID 488931); type: functional; settings: Rattus norvegicus
INS1 [2] = experiment: protection of INS-1E cells from cytokine death, dose response, ATP luminescence, dry powder (AID 488844); type: functional, cell-based; settings: Rattus norvegicus
[3] = molecular target: T1, Heat shock factor protein 1 (Mus musculus, UniProt P38532); experiment: HSF1 potentiators in luciferase reporter cells, confirmation, cell-based, NIH3T3, luminescence, dose retest (AID 435004); type: functional;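 further: stress induced by proteasome inhibitor MG132 added 30 min after compound; luciferase reporter driven by HSF1 response element in NIH3T3 cells; actives raise luminescence as potentiators of the MG132 stress response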
T1 sequence (P38532 whole entry): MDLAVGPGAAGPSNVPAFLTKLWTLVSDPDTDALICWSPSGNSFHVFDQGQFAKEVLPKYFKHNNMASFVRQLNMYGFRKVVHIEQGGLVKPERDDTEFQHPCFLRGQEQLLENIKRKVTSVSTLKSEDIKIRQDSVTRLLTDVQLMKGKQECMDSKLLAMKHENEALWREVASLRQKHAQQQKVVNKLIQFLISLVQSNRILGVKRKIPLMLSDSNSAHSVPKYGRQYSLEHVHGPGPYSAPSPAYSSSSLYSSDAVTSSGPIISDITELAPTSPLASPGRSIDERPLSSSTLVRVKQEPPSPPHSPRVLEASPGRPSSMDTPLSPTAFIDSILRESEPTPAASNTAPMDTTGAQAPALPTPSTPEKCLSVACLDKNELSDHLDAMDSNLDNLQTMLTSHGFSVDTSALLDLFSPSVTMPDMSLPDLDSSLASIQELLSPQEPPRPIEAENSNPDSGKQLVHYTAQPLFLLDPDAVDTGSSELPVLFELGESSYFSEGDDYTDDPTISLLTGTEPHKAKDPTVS

[4] = off-target signal loss in HeLa-CEM21 co-culture – HeLa F-luc CTL cells, cherry-picked, counter-screen for HIV-1 Env fusion inhibitor project, dose response (AID 652040); type: functional, cell-based;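 further: potency for signal decrease marking cytotoxic or nonspecific inhibition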
Streptokinase A = molecular target: T2, Streptokinase A (Streptococcus pyogenes serotype M1, UniProt P10520); experiment: S. pyogenes streptokinase expression inhibitors, potency, dose response, plasminogen activation absorbance, OD405 (AID 1914); type: functional, Streptococcus pyogenes M1 GAS;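 further: secreted streptokinase activity via plasminogen activation per viability signal from cell pellet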
T2 sequence (P10520 whole entry): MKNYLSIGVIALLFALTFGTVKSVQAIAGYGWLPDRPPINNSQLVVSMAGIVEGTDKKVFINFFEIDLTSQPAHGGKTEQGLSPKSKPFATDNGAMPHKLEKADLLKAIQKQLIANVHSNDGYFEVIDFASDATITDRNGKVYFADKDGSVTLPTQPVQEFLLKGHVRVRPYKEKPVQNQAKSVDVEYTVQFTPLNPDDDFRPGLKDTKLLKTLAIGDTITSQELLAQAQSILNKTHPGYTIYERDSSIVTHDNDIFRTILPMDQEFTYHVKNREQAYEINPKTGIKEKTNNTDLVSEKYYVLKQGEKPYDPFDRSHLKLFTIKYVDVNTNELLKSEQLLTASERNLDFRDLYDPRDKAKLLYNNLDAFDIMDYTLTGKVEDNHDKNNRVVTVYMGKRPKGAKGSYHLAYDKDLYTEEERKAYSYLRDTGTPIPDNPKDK

[5] = inhibitors of HIV Env-driven cell fusion, dose response, cherry-pick (AID 652057); type: functional, cell-based
[6] = Luminescence Cell-Based Dose Retest to Confirm Inhibitors of Cancer Stem Cells. [Related pubchem assays (depositor defined):AID2717, AID2721]; type: functional; settings: Homo sapiens
[7] = CEM21 lymphoblast cell cytotoxicity, dose response, cytotoxicity control for viral fusion inhibitor project, CellTiter-Glo luminescence, cherry-picked (AID 652042); type: functional, cell-based;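 further: potency for signal decrease meaning cytotoxicity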
HEK293 [8] = experiment: cells; settings: Homo sapiens
Streptococcus [9] = experiment: Group A Streptococcus viability loss, dose response, counter-screen for streptokinase expression inhibitor project, luminescence, BacTiterGlo (AID 1915); type: functional, organism-based;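 further: potency for reduction of bacterial viability or growth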
[10] = tested on: Streptococcus sp. 'group A'; experiment: growth inhibition of control SK(-) GAS strain, dose response, counter-screen for streptokinase expression inhibitor project, luminescence, kanamycin, BacTiterGlo, confirmation (AID 1900); type: functional, organism-based
[11] = molecular target: Heat shock protein HSP 90-alpha (Homo sapiens, UniProt P07900); type: functional, organism-based
[12] = inhibitors of clade B AD8 Env fusion, dose response, cell-based, cherry-pick (AID 652062); type: functional;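 further: luciferase signal from cell-cell fusion driven by HIV-1 clade B AD8 Env; potency is for inhibitors of fusion seen as a drop in luminescence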
HEK293 [13] = experiment: cells; settings: Homo sapiens; remark: listed apart in the source
Streptococcus [14] = experiment: Luminescence Microorganism-Based Dose Response Follow up to Identify Compounds Cytotoxic to Streptococcus. [Related pubchem assays: 1677 (Project Summary), 1915, 1914, 1902 (Retest at Dose), 1900 (Counter Screen), 1662 (Primary HTS)]; type: functional, organism-based
[15] = ZM109 Env clade C HIV-1 fusion inhibitors, dose response, HeLa effector, CEM target cells, luciferase, cherry-pick (AID 652058); type: functional, cell-based
Vero = experiment: cells; type: functional, Chlorocebus sabaeus; settings: Chlorocebus sabaeus, Vero
HeLa = experiment: HeLa cell cytotoxicity, dose response, cytotoxicity control for MITF activator project, CellTiter-Glo luminescence, cherry-pick samples (AID 540259); type: functional, cell-based; settings: Homo sapiens
[16] = molecular target: T3, Beta-adrenergic receptor kinase 1 (Homo sapiens, UniProt P25098); experiment: GRK2 inhibitors displacing RNA aptamer, dose response, biochemical, flow cytometry beads, FAM-aptamer, powder set 1 (AID 588720)
T3 sequence (P25098 whole entry): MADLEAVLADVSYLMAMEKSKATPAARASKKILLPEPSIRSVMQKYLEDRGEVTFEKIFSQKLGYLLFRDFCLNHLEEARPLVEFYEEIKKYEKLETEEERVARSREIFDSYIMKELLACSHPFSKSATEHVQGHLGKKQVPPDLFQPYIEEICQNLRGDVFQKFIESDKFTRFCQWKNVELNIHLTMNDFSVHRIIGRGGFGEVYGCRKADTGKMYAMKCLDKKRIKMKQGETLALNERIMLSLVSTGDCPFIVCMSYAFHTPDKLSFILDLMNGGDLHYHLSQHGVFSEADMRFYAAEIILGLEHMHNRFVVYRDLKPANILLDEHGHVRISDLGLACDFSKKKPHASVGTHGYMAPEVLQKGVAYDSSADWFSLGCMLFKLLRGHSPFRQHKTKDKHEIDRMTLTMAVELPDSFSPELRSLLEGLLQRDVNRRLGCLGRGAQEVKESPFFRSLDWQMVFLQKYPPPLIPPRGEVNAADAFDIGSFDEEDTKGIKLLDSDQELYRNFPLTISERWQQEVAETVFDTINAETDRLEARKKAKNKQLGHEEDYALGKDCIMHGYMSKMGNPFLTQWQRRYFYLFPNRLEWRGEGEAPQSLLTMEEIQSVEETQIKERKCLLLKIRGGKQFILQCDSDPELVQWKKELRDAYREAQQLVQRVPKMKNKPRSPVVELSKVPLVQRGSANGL

Trypsin = Trypsin (Sus scrofa, UniProt P00761); experiment: porcine trypsin inhibitors, dose response, selectivity assay for Rce1 protease inhibitor project, biochemical, quenched peptide fluorescence, cherry-pick (AID 488789)
CAAX prenyl protease 2 [17] = molecular target: CAAX prenyl protease 2 (Homo sapiens, UniProt Q9Y256); experiment: human Rce1 protease inhibitors, dose response, biochemical, yeast membranes, quenched-peptide fluorescence, cherry-pick (AID 588849)
Large T antigen = Large T antigen (Simian virus 40, UniProt P03070); type: functional, Betapolyomavirus macacae;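 further: Confirmatory-stage PubChem screen for compounds that inhibit SV40 T antigen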
CAAX prenyl protease 2 [18] = molecular target: T4, CAAX prenyl protease 2 (Saccharomyces cerevisiae S288c, UniProt Q03530); type: biochemical
T4 sequence (Q03530 whole entry): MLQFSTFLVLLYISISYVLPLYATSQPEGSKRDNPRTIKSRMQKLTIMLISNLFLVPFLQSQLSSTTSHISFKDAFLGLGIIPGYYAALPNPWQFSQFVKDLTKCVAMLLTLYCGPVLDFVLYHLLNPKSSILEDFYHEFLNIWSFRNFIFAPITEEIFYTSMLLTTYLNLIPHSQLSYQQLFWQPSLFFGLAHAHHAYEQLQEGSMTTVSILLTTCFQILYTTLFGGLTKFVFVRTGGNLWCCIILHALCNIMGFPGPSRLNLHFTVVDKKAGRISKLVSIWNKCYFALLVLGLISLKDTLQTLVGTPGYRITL

[19] = molecular target: T5, RNA-binding protein pos-1 (Caenorhabditis elegans, UniProt G5EF15); experiment: inhibitors of POS-1/mex-3 RNA binding, dose response, biochemical, fluorescence polarization (AID 1964);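 further: purified POS-1 fused to maltose binding protein made in E. coli; potency of compounds blocking POS-1 binding to fluorescent RNA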
T5 sequence (G5EF15 whole entry): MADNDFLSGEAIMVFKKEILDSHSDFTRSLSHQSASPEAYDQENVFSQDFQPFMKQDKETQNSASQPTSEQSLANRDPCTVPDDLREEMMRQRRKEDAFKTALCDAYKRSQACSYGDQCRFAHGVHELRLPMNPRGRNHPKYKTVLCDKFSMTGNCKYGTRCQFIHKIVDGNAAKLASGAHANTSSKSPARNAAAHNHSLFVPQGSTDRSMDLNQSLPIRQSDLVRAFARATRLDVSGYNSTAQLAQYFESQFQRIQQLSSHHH

Escherichia coli [20] = experiment: microbe, parasite or virus in culture
[21] = molecular target: T6, Zinc finger protein mex-5 (Caenorhabditis elegans, UniProt Q9XUB2); experiment: MEX-5/TCR-2 RNA interaction inhibitors, dose response, biochemical, C. elegans, fluorescence polarization (AID 1960)
T6 sequence (Q9XUB2 whole entry): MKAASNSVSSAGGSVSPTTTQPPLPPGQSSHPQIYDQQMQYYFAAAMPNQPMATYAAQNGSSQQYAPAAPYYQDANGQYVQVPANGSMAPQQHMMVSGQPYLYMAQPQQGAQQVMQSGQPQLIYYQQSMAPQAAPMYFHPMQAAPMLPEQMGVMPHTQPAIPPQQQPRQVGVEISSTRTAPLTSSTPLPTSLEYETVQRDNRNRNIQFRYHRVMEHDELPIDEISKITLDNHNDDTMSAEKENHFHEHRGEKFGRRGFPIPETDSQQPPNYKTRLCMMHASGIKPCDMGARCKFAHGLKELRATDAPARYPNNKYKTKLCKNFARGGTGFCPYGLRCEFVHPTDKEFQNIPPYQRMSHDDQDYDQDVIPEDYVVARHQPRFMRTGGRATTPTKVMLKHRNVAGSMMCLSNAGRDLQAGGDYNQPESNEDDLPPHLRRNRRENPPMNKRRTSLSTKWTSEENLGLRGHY

Escherichia coli [22] = experiment: microbe, parasite or virus in culture; remark: listed apart in the source

Chain of Trypsin (P00761 whole entry): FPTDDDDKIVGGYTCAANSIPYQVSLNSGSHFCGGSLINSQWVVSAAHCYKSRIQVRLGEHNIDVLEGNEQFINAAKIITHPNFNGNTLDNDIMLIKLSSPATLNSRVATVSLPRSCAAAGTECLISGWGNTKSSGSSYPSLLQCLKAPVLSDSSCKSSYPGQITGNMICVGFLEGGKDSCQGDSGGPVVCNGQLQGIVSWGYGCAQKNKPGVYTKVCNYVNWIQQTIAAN
Chain of CAAX prenyl protease 2 (Homo sapiens, UniProt Q9Y256) (Q9Y256 whole entry): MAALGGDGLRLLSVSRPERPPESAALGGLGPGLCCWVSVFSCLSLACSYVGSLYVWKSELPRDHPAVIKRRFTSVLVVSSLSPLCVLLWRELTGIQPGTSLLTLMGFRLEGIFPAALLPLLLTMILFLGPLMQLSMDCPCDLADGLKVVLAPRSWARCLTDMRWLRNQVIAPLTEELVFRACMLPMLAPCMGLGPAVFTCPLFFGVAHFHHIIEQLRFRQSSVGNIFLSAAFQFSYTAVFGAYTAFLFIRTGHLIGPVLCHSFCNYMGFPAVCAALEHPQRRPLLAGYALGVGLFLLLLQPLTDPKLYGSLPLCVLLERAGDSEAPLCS
Chain of Large T antigen (P03070 whole entry): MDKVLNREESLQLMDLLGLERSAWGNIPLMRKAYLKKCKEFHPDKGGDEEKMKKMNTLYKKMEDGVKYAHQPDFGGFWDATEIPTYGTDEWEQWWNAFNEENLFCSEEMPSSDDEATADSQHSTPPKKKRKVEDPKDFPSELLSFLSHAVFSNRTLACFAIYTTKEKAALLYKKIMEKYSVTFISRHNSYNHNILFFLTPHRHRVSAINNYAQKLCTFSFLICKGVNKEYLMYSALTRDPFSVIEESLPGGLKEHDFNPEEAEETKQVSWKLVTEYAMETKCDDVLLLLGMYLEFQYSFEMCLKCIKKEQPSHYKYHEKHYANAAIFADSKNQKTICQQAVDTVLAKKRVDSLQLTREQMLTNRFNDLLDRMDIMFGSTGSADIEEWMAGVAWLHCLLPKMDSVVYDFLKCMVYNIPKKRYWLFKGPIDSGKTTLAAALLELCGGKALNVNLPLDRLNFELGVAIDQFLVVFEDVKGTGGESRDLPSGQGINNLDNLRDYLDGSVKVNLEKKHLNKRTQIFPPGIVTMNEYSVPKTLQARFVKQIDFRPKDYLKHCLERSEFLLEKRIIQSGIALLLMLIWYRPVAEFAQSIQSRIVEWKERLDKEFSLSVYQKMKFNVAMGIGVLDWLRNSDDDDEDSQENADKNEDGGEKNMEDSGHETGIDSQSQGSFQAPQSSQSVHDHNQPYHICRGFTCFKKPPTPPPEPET

Cc1ccc(S(=O)(=O)N(C)C[C@@H]2Oc3c(NC(=O)Nc4ccccc4)cccc3C(=O)N([C@@H](C)CO)C[C@H]2C)cc1
AC50 (INS1 [1]): 81.6 µM (active)
AC50 (INS1 [2]): 27 µM (active)

CC(=O)N(C)c1ccc(OCC(O)Cn2c3ccc(Cl)cc3c3cc(Cl)ccc32)cc1 (stereo unspecified)
EC50 [3]: > 260 µM (inactive)
AC50 [4]: 2.47 µM (active)
EC50 (Streptokinase A): 2.66 µM (active)
AC50 [5]: 2.19 µM (active)
AC50 [6]: 1.59 µM (active)
AC50 [7]: 23.2 µM (active)
EC50 (HEK293 [8]): > 59.6 µM (inactive)
EC50 (Streptococcus [9]): 80.6 µM (active)
EC50 [10]: 2.7 µM (active)
AC50 [11]: 5.12 µM (active)
AC50 [12]: 4.49 µM (active)
EC50 (HEK293 [13]): > 59.6 µM (inactive)
EC50 (Streptococcus [14]): 9.63 µM (active)
AC50 [15]: 2.38 µM (active)

CC(=O)Oc1ccccc1C(=O)C=Cc1cccc([N+](=O)[O-])c1
EC50 (HEK293 [8]): > 59.6 µM (inactive)
AC50 [11]: 3.01 µM (active)
EC50 (HEK293 [13]): > 59.6 µM (inactive)
CC50 (Vero): 16.5 µM (active)

CCCC(=O)c1ccc(N2CCCCCC2)c(F)c1
AC50 (HeLa): 205 µM (active)

COC(=O)c1ccc(NC(=O)CCS(=O)(=O)c2ccc(Br)cc2)cc1
EC50 [16]: 6.56 µM (active)

OCCCNc1ncnc2sc(-c3ccccc3)cc12
AC50 (Trypsin): 7.39 µM (active)
AC50 (CAAX prenyl protease 2 [17]): 8.43 µM (active)

CN1CC(C(=O)O)Cc2c1ccc1ccccc21 (stereo unspecified)
IC50 (Large T antigen): 19.4 µM (active)
AC50 (Trypsin): 5.17 µM (active)
AC50 (CAAX prenyl protease 2 [18]): 9.61 µM (active)
AC50 (CAAX prenyl protease 2 [17]): 7.4 µM (active)

CN(C)c1ccc(O)c2c1CC1CC3C(N(C)C)C(=O)C(C(N)=O)=C(O)[C@@]3(O)C(=O)C1=C2O (stereo partly specified)
EC50 [19]: > 300 µM (not active)
AC50 (Escherichia coli [20]): 1.78 µM (active)
EC50 (Streptococcus [9]): 0.184 µM (active)
EC50 [10]: 0.078 µM (active)
EC50 [21]: 37 µM (active)
AC50 (Escherichia coli [22]): 11.4 µM (active)

COc1ccc(-n2c(Cc3cccn3C)nnc2SCC(=O)Nc2ccc(C(C)=O)cc2)cc1
AC50 (Escherichia coli [22]): 56.8 µM (active)

CCCc1cc(-c2ccc3c(c2)COc2c4ccccc4nn2-3)on1
AC50 (HeLa): 40 µM (active)
